Target: T1, C238A VLCAD (Mus musculus, UniProt P50544, C238A)
T1 construct: 3xFLAG (C); host or cells: Hepa 1 to 6 cells
T1 sequence (P50544 42-656 C238A): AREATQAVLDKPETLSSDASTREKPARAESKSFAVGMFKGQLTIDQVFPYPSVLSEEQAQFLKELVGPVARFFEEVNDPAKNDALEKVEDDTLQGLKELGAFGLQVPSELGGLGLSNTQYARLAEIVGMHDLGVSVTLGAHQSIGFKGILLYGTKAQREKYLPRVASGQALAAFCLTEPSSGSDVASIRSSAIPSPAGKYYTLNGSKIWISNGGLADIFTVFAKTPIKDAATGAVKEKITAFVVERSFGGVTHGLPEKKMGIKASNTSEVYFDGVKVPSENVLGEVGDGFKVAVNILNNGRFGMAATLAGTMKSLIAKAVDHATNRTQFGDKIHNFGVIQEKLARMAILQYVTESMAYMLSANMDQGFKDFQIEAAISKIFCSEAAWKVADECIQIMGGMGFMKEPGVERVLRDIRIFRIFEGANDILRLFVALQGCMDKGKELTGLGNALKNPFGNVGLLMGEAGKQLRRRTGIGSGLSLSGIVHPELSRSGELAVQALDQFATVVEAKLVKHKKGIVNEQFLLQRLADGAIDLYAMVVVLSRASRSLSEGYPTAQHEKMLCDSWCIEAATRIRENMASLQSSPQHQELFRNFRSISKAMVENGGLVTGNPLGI
Assay: Hepa 1 to 6 cells expressing FLAG-tagged C238A VLCAD exposed to GSNO
Format: cell-based
Settings: same GSNO treatment
Protocol: Liver homogenate (final concentration of 0.03 μg/μl) or cell lysate (final concentration of 0.09 μg/μl) in 100 mM potassium phosphate buffer (pH 7.2) containing 0.2% Triton X-100 and 0.1 mM EDTA was mixed with […] ferricenium ion, and the reaction was initiated by the addition of palmitoyl-CoA (the final volume of the assay was 130 μl). […] At least nine concentrations of palmitoyl-CoA, ranging from 0.015 to 2 mM, were used for the experimental determination of the apparent Vmax and KM of VLCAD for each animal. […] A unit of enzyme activity is defined as the amount of enzyme that causes the reduction of […] of ferricenium per minute at room temperature (ε=4.3 mM^−1 cm^−1 at 300 nm) (Izai et al. (1992) J. Biol. Chem., 267:1027-1033). […] The measurement of specific activity of VLCAD in liver homogenates (FIG. 2H) and cell lysates (FIG. 4) was performed in the presence of 0.25 and 0.125 mM palmitoyl-CoA, respectively.
The QuikChange® Lightning Site-Directed Mutagenesis Kit (Agilent Technologies) was used to introduce single amino acid mutations in complementary DNA encoding VLCAD. A cysteine-to-alanine mutant at amino acid position 238 was generated with Ex-Mm01013-M14 (hereinafter referred to as pVLCAD-3×FLAG®), a plasmid encoding mouse VLCAD fused to three FLAG® tags in the C-terminal region of the protein (GeneCopoeia), as a template. […]

N[C@@H](CCC(=O)N[C@@H](CSN=O)C(=O)NCC(=O)O)C(=O)O [GSNO, S-nitrosoglutathione]
basal activity of C238A VLCAD mutant in response to GSNO: did not change

From patent US10434079B2, “Compositions and methods for the treatment of fatty acid metabolism disorders” (The Children's Hospital of Philadelphia, priority 2013, dated 2019)
